Experimental data from US12472226B2, “Cell-permeable peptide” (priority 2019, dated 2025).
Non-standard residues stand in square brackets, D forms with d. No end group written: not given here. *: point of attachment. FITC = O=C1OC2(c3ccc(O)cc3Oc3cc(O)ccc32)c2ccc(NC(=S)*)cc21; Ahx = NCCCCCC(=O)O

Columns and labels:
Assay in all cases: Test of inducing cell-death in vitro (Calcein-AM/PI dead cell rate)
Format in all cases: cell-based, human
Settings in all cases: 50 μg/mL, 9 days
[1] = tested on: THP-1 cells
Text: (§1) Human fibrosarcoma-derived HT-1080 cells (HT-1080 cells, JCRB cell bank) were used as cancer cells in the test for monitoring changes in mitochondrial membrane potential. HT-1080 cells, human osteosarcoma cell line Hos cells (Hos cells, JCRB cell bank), human histiocytic lymphoma/macrophage U937 cells (U937 cells, JCRB cell bank), human myeloid leukemia HL-60 cells (HL-60 cells, JCRB cell bank), acute monocytic leukemia THP-1 cells (THP-1 cells, JCRB cell bank), human alveolar basal epithelial adenocarcinoma cell A549 cells (A549 cells, Cell Resource Center for Biomedical Research, Institute of Development, Aging and Cancer, Tohoku University), human pancreatic carcinoma cells (MIA Paca 2 cells, Cell Resource Center for Biomedical Research, Institute of Development, Aging and Cancer, Tohoku University) and well differentiated human liver carcinoma-derived cell line HuH7 cells (HuH7 cells, Cell Resource Center for Biomedical Research, Institute of Development, Aging and Cancer, Tohoku University) were used as cancer cells in an in vitro cell-death induction test of cancer cells and a nuclear transport test of Example 2. Normal human gingival fibroblast cells Gin-1 (Gin-1 cells, DS Pharma Biomedical) were used as a control. The above-described cells were each inoculated into a 96-well culture plate (Falcon) at 5,000 cells/[…] and subjected to the following tests.
(§2) The peptide of SEQ ID NO: 1 labeled with FITC (Example 2) was used for the test of inducing cell-death in vitro in cancer cells. It was prepared the test example to which 100 μL of Example 2 and further 10% FBS were added and cultured for 9 days under conditions of 200 μL of serum-supplemented medium (Alpha modification of Eagle's MEM (α-MEM) (Thermo Fisher Scientific)+10% FBS). Furthermore, it was also produced the test example that was cultured for 21 days with the whole amount of Example 2-supplemented medium replaced every 7 days. As a control, the cells were cultured in a serum-supplemented medium (α-MEM+10% FBS) without addition and were used. A supernatant was removed after the completion of the culture. The cells were washed once with PBS and stained in PBS to which a fluorescent dye for living cell staining Calcein-AM (DOJINDO LABORATORIES) (final concentration: 0.1 μg/mL) and a fluorescent dye for dead cell staining Propidium Iodide (PI) (DOJINDO LABORATORIES) (final concentration: 0.3 μg/mL) were added, at 37° C. in a 5% CO2 cell incubator for 30 minutes. The living cells and dead cells were separately stained with Calcein-AM and PI, respectively and imaged with the confocal laser scanning microscope LSM800. Next, the dead cell rate relative to the number of total cells was analyzed using ImageJ.
(§3) The results are represented by the average value of the dead cell rate (the number red cells stained with IP/the number of total cells×100(%))±standard deviation (SD). In FIG. 2A, the vertical axis represents the rate of cell death when each cell was cultured with Example 2 (50 μg/mL) for 9 days and the horizontal axis represents various types of cells. The increase in the dead cell rate of the Gin-1 cells was not observed.

[2] = tested on: Gin-1 cells
Text: as §1, §2, §3

[3] = tested on: HL-60 cells
Text: as §1, §2, §3

Example 2: peptide of SEQ ID NO: 1 labeled with FITC, bound via an Ahx linker at the N-terminus ({FITC}-[Ahx]KDNRGNLLQCVCTGNGRGEWKC; cysteine pairing not given here)
increase in the dead cell rate vs control [1]: significant difference at the level of 5% | increase in the dead cell rate vs control [2]: not observed | increase in the dead cell rate vs control [3]: significant difference at the level of 1%
